Experiment [1] has as its system chromaffin granule membrane. In words: ATP transport (uptake of radiolabeled ATP) in chromaffin granule membrane vesicles. The conditions noted are these: role: inhibitor, 1 mM 3H-ATP. Format: biochemical, cattle. How it is done: Chromaffin granule membranes were prepared from adrenal glands collected from slaughtered cattle according to Reference A (Nathan Nelson et al., 1988, Chromaffin Granule Proton Pump, Methods in Enzymology, 157, 619-633). Chromaffin granule membranes prepared by sucrose density gradient centrifugation were suspended in 2 ml of SME buffer (20 mM MOPS-tris (pH 7.0), 0.3 M sucrose, 5 mM EDTA, 10 μg/ml leupeptin, and 10 μg/ml pepstatin)+25% glycerol, and the resulting suspension was aliquoted and stored at −80° C. Under these conditions, the ATP transport activity, the V-ATPase activity, and the catecholamine transport activity remain fully active for at least one year.
An ATP transport inhibition experiment for the chromaffin granule membrane was carried out according to Reference B (Yoshinori Moriyama et al., 2022, Is the vesicular nucleotide transporter a molecular target of eicosapentaenoic acid?, Frontiers in Pharmacology, 103389). About 20 μg of chromaffin granule membranes were added to 0.5 ml of measurement buffer (20 mM MOPS-tris (pH 7.0), 0.3 M sucrose, 5 mM potassium chloride, 5 mM magnesium acetate, 5 mM creatine phosphate, 10 units of creatine kinase, and 1 mM 3[H]-ATP [15 KBq/assay]), followed by incubation at 30° C. for 1 hour. Through a Millipore MCE membrane filter with a pore size […], 0.2 ml of the reaction liquid was filtered by suction. Thereafter, the filter was washed with 10 ml of 20 mM MOPS-tris (pH 7.0), 0.3 M sucrose, 5 mM potassium chloride, and 5 mM magnesium acetate, and dissolved in 10 ml of Clear-sol II (manufactured by Nacalai Tesque, Inc.). The radioactivity was then measured using a liquid scintillation counter (N=3).
The reaction was initiated by adding 50 mM ^3[H]-ATP to a final concentration of 1 mM. The 50 mM ^3[H]-ATP was prepared by mixing an ATP-tris solution (manufactured by Sigma-Aldrich) with [2,8-^3H]adenosine triphosphate tetrasodium salt (26.0 Ci/mmol) (manufactured by New England Nuclear). PEP was used as a test reagent, and pyruvic acid was used as a negative control. Five minutes before the addition of ATP, PEP or pyruvic acid, as a solution in 20 mM MOPS-tris (pH 7.0), 0.3 M sucrose, 5 mM potassium chloride, and 5 mM magnesium acetate, was added to the measurement liquid to a final PEP concentration of 0.02, 0.05, 0.1, 0.2, 0.4, or 1 mM, or to a final pyruvic acid concentration of 0.5 or 1 mM.
Chromaffin granule membrane vesicles were prepared in the same manner as in Example 5, and uptake of radiolabeled ATP into the vesicles was measured. Transport activity of catecholamine (dopamine) and ATP-dependent proton transport by V-ATPase were also measured in the same manner as in Example 5.

A further experiment deals with LX-2 cells. In words: ATP secretion from LX-2 cells. Format: cell-based, human. How it is done: Cells of the immortalized human hepatic stellate cell line LX-2 (manufactured by Merck) was cultured in Dulbecco's modified Eagle's medium (DMEM, 4500 mg/l Glucose, D5796, manufactured by Sigma-Aldrich) supplemented with inactivated 2% fetal bovine serum (FBS), 10 IU/ml penicillin, and 10 IU/ml streptomycin in a T25 or T75 flask at 37° C. in 5% CO2.
LX-2 cells (2×10^6 cells per well) were seeded in a collagen-coated 6-well culture dish containing Dulbecco's modified Eagle's medium (manufactured by Sigma-Aldrich) supplemented with 10 IU/ml penicillin, […] 2% fetal bovine serum, and cultured in 5% CO2 at 37° C. After 3 days, the LX-2 cells were washed twice and preincubated in Krebs-Ringer buffer (10 mM HEPES-Tris, pH 7.4, 128 mM NaCl, 1.9 mM KCl, 1.2 mM KH2PO4, 1.3 mM MgSO4, 26 mM NaHCO3, 2.4 mM CaCl2, 10 mM glucose, 0.2% (w/v) bovine serum albumin) with or without 10 μM clodronate. The LX-2 cells were then stimulated with Krebs-Ringer buffer supplemented with ionomycin (manufactured by Cayman) regardless of whether clodronate was present or not. For the stimulation, 1 mM EGTA (manufactured by Dojindo) or 10 μM serotonin (5-HT, manufactured by Sigma-Aldrich) was used. The ATP concentration in the culture supernatant was measured in the same manner as in Example 6.
For an siRNA experiment, a TriFECTa (trademark) RNAi Kit (manufactured by Integrated DNA Technologies) was used. A scramble RNA (scRNA) as a control siRNA, or a VNUT-specific siRNA, was incubated with Lipofectamine 3000 reagent (manufactured by Invitrogen) in OptiMEM reduced-serum medium (#31985070, manufactured by Gibco) at room temperature for 15 minutes, and then added directly to the cultured cells. The LX-2 cells as the transfection mixture were plated, and then cultured for 48 hours. The base sequences of VNUT siRNA forward and VNUT siRNA reverse, used for the above kit, are shown in SEQ ID NOs: 1 and 2, respectively. A positive control for an endogenous gene (#51-01-08-02) and a negative control (#51-01-14-03) were used.

The next experiment has as its system mouse auricle. Description: Imiquimod-induced psoriasis model, comparison with an anti-TNFα antibody (Example 19). Format: in vivo. The conditions noted are these: imeglimin 40 mg/kg oral daily or infliximab 100 μg/mouse i.v. Days 1, 3, 5. How it is done: The dorsal hair of mice was shaved and depilated (Day 0). To each of the left auricle and the depilated back of each mouse, 62.5 mg of 5% imiquimod cream (Beselna Cream 5%) was applied once daily a total of seven times (Days 1 to 7) in accordance with Example 18, to induce imiquimod-induced psoriasis (IMQ group). In the IMQ+IMG group, mice received oral administration of imeglimin (40 mg/kg) once daily (Day 1 to 7) after the imiquimod application. […] Thickness of the auricle was measured, and the degrees of erythema, desquamation, and infiltration in the affected area were rated on Days 1, 3, 5, 7, and 8 according to the PASI scoring of the DermNET Dermatology Resource (none: 0, mild: 1, moderate: 2, severe: 3, and very severe: 4). The resulting values were used to calculate the PASI score.
Further, for an auricle excised on Day 8, immunohistochemical staining was performed in the same manner as in Example 18, and auricular sections were imaged using a fluorescence microscope (BZ-X710; manufactured by Keyence Corporation).

The test system of experiment [2] is human epidermal keratinocytes. Description: ATP secretion from human epidermal keratinocytes promoted by ionomycin. Format: cell-based. The conditions noted are these: 5 μM ionomycin as stimulant, keratinocytes. As to the method: Human epidermal keratinocytes (Cryopreserved HEK, Lot 1758, Cell Applications Inc.) were cultured using an Epivita Keratinocyte Growth Medium Kit according to the manufacturer's instructions. The procedure was as follows. A supplement medium was added to a hydrocortisone-containing basal medium included in the medium preparation kit to prepare a complete medium. The medium in the dish was removed by aspiration. The cells were washed with 5 ml of BSS (Gbco), and then the BSS was removed by aspiration. After addition of 5 to 6 ml of trypsin/EDTA solution (Gbco), the dish was incubated at 37° C. for 2 minutes. After addition of 5 ml of trypsin neutralization solution, the resulting cell suspension was transferred into two 15-ml Falcon tubes, and centrifuged at 200×g for 5 minutes. The supernatant was removed by aspiration, and the pelleted cell cluster was suspended in 2 ml of the medium at 4.5×10^5 cells/ml. An aliquot of the resulting cell suspension was cryopreserved, while another aliquot was cultured and subjected to measurement.
ATP secretion by human epidermal keratinocytes (hereinafter referred to as “keratinocytes”) was measured. Regarding control solutions, Krebs-Ringer HEPES supplemented with 0.2% BSA and 25 mM glucose (hereinafter also referred to as “Krebs/Iono(−)”) was used as a negative control, and a solution prepared by adding 5 μM ionomycin to this solution (hereinafter also referred to as “Krebs/Iono(+)”) was used as a positive control for ATP secretion. Ionomycin is a Ca^2+ ionophore. Addition of ionomycin to cells is known to promote influx of extracellular Ca^2+ into the cells to increase the intracellular Ca^2+ concentration, resulting in enhancement of ATP secretion. Test solutions were prepared by adding clodronate to Krebs/Iono(−) or Krebs/Iono(+) to a final concentration of 0.1 μM (hereinafter also referred to as “Clo/Iono(−)” or “Clo/Iono(+)”, respectively) (N=3).
Keratinocytes were cultured at 2.5×10^4 cells/well in a 24-well plate at 37° C. in 5% CO2 for 4 days. The medium was removed by aspiration, replaced with Krebs/Iono(−) or Clo/Iono(−), and incubated at 37° C. for 6 hours. These solutions were then removed by aspiration, and the content of each well incubated with Krebs/Iono(−) was replaced with 300 μl of a control solution (Krebs/Iono(−) or Krebs/Iono(+)), while the content of each well incubated with Clo/Iono(−) was replaced with 300 μl of a test solution (Clo/Iono(−) or Clo/Iono(+)). After further incubation at 37° C. for 20 minutes, 200 μl of the supernatant was collected. The collected supernatant was immediately treated on a heat block at 95° C. for 10 minutes, to inactivate ectonucleotidase. ATP in the supernatant was quantified using a Dojindo ATP assay kit−Luminescence (manufactured by Dojindo Laboratories).
Keratinocytes were cultured in the same manner as in Example 1, and ATP secretion from the keratinocytes was measured. Krebs/Iono(−), or a solution prepared by adding 10 μM imeglimin, 0.1 μM eicosapentaenoic acid (EPA), 1 μM EPA, or 10 μM clodronate to Krebs/Iono(−) was used (N=4).
After culturing keratinocytes, the medium was removed by aspiration, and replaced with Krebs/Iono(−), or Krebs/Iono(−) supplemented with 10 μM imeglimin, 0.1 μM EPA, 1 μM EPA, or 10 μM clodronate, followed by incubation for 6 hours. Subsequently, the solution was replaced with either a control solution (Krebs/Iono(−) or Krebs/Iono(+)) or a test solution (Krebs/Iono(+) supplemented with 10 μM imeglimin, 0.1 μM EPA, 1 μM EPA, or 10 μM clodronate), followed by incubation at 37° C. for 20 minutes and then collection of 200 μl of the supernatant. The collected supernatant was immediately treated on a heat block at 95° C. for 10 minutes to inactivate ectonucleotidase. ATP in the supernatant was quantified using a Dojindo ATP assay kit—Luminescence (manufactured by Dojindo Laboratories). […]

As to `O=C[C@H](O)[C@@H](O)[C@H](O)[C@H](O)COP(=O)(O)O` [glucose-6-phosphate], the “inhibitory activity on ATP transport” value in experiment [1] is “no inhibitory activity was found”. As for `NCCc1c[nH]c2ccc(O)cc12` [5-HT, serotonin], the “ATP secretion from the LX-2 cells” value in the experiment with LX-2 cells (10 μM serotonin (5-HT) (FIG. 25)) was “promoted ATP secretion”. Consider `CC(=O)SCCNC(=O)CCNC(=O)[C@H](O)C(C)(C)COP(=O)(O)OP(=O)(O)OC[C@H]1O[C@@H](n2cnc3c(N)ncnc32)[C@H](O)[C@@H]1OP(=O)(O)O` [acetyl-CoA], for which the “inhibitory activity on ATP transport” value in experiment [1] is on record as “no inhibitory activity was found”. On the same count and under the same terms, the value for `O=C(O)C[C@H](O)C(=O)O` [malic acid] was “no inhibitory activity was found”. With “infliximab: infliximab (manufactured by Nichi-Iko Pharmaceutical Co., Ltd.), an anti-TNFα antibody as an existing drug”, the “erythema (excepted from the symptoms reduced)” value in the experiment with mouse auricle (N=5 (FIG. 38)) is recorded as “except erythema”. In addition, in the experiment on mouse auricle (N=5 (FIGS. 37-41)), the “typical psoriatic symptoms induced by imiquimod, except erythema (thickness, desquamation, infiltration, PASI score)” value is “reduced”. For the compound `O=C(O)CN(CCOCCOCCN(CC(=O)O)CC(=O)O)CC(=O)O` [EGTA], in the experiment on LX-2 cells (1 mM EGTA, chelating of Ca2+, N=6 (FIG. 21)), the “ionomycin-induced ATP secretion” value is listed as “strongly inhibited”. For the compound `O=C(O)CC(O)(CC(=O)O)C(=O)O` [citric acid], in experiment [1], the “inhibitory activity on ATP transport” value is given as “no inhibitory activity was found”. The same measure, in the same setting: the value for `O=C(O)CC(=O)C(=O)O` [oxaloacetic acid] was “no inhibitory activity was found”. As for `C[C@H](CCC(=O)O)C[C@H](C)C[C@H](C)C(=O)/C=C(\O)[C@H](C)C[C@H](C)C/C=C/[C@@H](C)[C@@H](O)[C@@H](C)[C@@H](O)C[C@@H]1CC[C@@](C)([C@H]2CC[C@@](C)([C@@H](C)O)O2)O1` [ionomycin], the ATP secretion entry in experiment [2] is given as “promotes ATP secretion”. In the experiment with LX-2 cells (ionomycin, N=3 (FIG. 20)), the “secretion of ATP by the LX-2 cells over time” value is “increased secretion of ATP”. In the case of `C[C@H](O)C(=O)O` [L-lactic acid], the “inhibitory activity on ATP transport” value in experiment [1] is on record as “no inhibitory activity was found”. Same read-out and setting: as for `O=C(CO)[C@@H](O)[C@H](O)[C@H](O)COP(=O)(O)O` [fructose-6-phosphate], the entry is “no inhibitory activity was found”; as for `NC(=O)c1ccc[n+]([C@@H]2O[C@H](COP(=O)([O-])OP(=O)(O)OC[C@H]3O[C@@H](n4cnc5c(N)ncnc54)[C@H](O)[C@@H]3O)[C@@H](O)[C@H]2O)c1` [NAD+], “no inhibitory activity was found”.

On to `CC(=O)C(=O)O` [pyruvic acid], for which the “inhibitory activity on ATP transport” value in experiment [1] is “no inhibitory activity was found”. Further, in experiment [1] (up to 1 mM pyruvic acid), the “inhibition of ATP transport” value is given as “did not inhibit ATP transport”.

(Values after patent US20260306500A1, “METHOD OF INHIBITING ADENOSINE TRIPHOSPHATE SECRETION, METHOD OF INHIBITING HEPATIC STELLATE CELL ACTIVATION, METHOD OF DEACTIVATING HEPATIC STELLATE CELL, METHOD OF TREATING HEPATIC FIBROSIS, METHOD OF TREATING NON-ALCOHOLIC STEATOHEPATITIS, AND METHOD OF TREATING PSORIASIS” (Kurume University, priority 2023, published 2026).)
